Tests used:
SETVI (Foxtail, Green) [1] = test: Postemergence herbicidal evaluation; type: in vivo, Setaria viridis
Summary of the method: (§1)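 Two-week seedlings sprayed postemergence at 40 psi; formulation: 1:1 acetone/water, 0.5% TWEEN 20; application ≈0.0156–0.500 kg/ha. Greenhouse grow-out, then 0–9 visual scoring at 4–5 weeks.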

ORYSAT (Rice, Tebonnet) = test: Postemergence herbicidal evaluation; type: in vivo, Oryza sativa, (L.) Tebonnet
Summary of the method: as §1

ZEAMX (Corn, Field) [2] = test: Postemergence herbicidal evaluation; type: in vivo, Zea mays
Summary of the method: as §1

ECHCG (Barnyardgrass) = test: Preemergence herbicidal evaluation; type: in vivo, Echinochloa crus-galli; settings: rated 4-5 weeks after treatment
Summary of the method: (§2)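 Each species is sown separately in potting soil over roughly an inch of soil before any emergence. The soil surface then receives an aqueous acetone spray delivering about 0.0156 to 0.500 kg/ha of compound. After four to five weeks, injury is scored from 0 to 9 relative to a control.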

SETVI (Foxtail, Green) [3] = test: Preemergence herbicidal evaluation; type: in vivo, Setaria viridis; settings: rated 4-5 weeks after treatment
Summary of the method: as §2

[4] = system: TRZAWR (Wheat, Winter, cv Riband); test: Preemergence herbicidal evaluation; type: in vivo, Triticum aestivum; settings: rated 4-5 weeks after treatment
Summary of the method: as §2

ZEAMX (Corn, Field) [5] = test: Preemergence herbicidal evaluation; type: in vivo, Zea mays; settings: rated 4-5 weeks after treatment
Summary of the method: as §2

[6] = system: ECHORC (Watergrass (Calif.)); test: Preemergence weed control under flooded paddy conditions; type: in vivo, Echinochloa oryzoides; settings: rated 3-4 weeks after treatment
Summary of the method: (§3)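 Ratings on a 0-9 visual scale cover stand, vigor, malformation, size, chlorosis and overall appearance relative to a control, taken three to four weeks post-treatment. Application was into flood water over freshly sown silt loam at roughly 0.0313 to 0.500 kg/ha.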

CYPIR (Rice Flatsedge) [7] = test: as above; type: in vivo, Cyperus iria; settings: rated 3-4 weeks after treatment
Summary of the method: as §3

CYPSE (Flatsedge) [8] = test: as above; type: in vivo, Cyperus serotinus; settings: rated 3-4 weeks after treatment
Summary of the method: as §3

[9] = system: ECHORC (Watergrass (Calif.)); test: Postemergence weed control under flooded paddy conditions; type: in vivo, Echinochloa oryzoides; settings: postemergence weeds, 3-4 weeks after treatment
Summary of the method: (§4)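 Herbicidal effect is judged by eye on a 0–9 scale versus control, 3–4 weeks after dosing. Dosing is into flood water kept 1.5–3 cm over the soil, at about 0.0313–0.500 kg/ha in aqueous/acetone 50/50 v/v, on 3–5 cm weeds and 1.5–2.5-leaf rice seedlings.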

CYPIR (Rice Flatsedge) [10] = test: as above; type: in vivo, Cyperus iria; settings: postemergence weeds, 3-4 weeks after treatment
Summary of the method: as §4

CYPSE (Flatsedge) [11] = test: as above; type: in vivo, Cyperus serotinus; settings: postemergence weeds, 3-4 weeks after treatment
Summary of the method: as §4

[12] = system: SAGPY (Arrowhead (Pygmaea)); test: as above; type: in vivo, Sagittaria pygmaea; settings: postemergence weeds, 3-4 weeks after treatment
Summary of the method: as §4

## CCOC(=O)CN1C(=O)C(CC(=O)O)O/C1=N/c1cc(-n2c(=O)cc(C(F)(F)F)n(C)c2=O)c(F)cc1Cl (stereo not drawn) [Compound 41, 2-{{2-Chloro-5-[3,6-dihydro-3-methyl-2,6-dioxo-4-(trifluoromethyl)-1(2H)-pyrimidinyl]-4-fluoro-phenyl}imino}-4-oxo-3,5-oxazolidinediacetic acid, 3-ethyl ester]
SETVI (Foxtail, Green) [1]; Rate 0.0158 kg/ha
  Postemergence herbicidal rating SETVI: 1.0
SETVI (Foxtail, Green) [1]; Rate 0.0315 kg/ha
  Postemergence herbicidal rating SETVI: 3.0
SETVI (Foxtail, Green) [1]; Rate 0.0630 kg/ha
  Postemergence herbicidal rating SETVI: 9.0
ORYSAT (Rice, Tebonnet); Rate 0.0158 kg/ha
  Postemergence herbicidal rating ORYSAT: 2.5
ORYSAT (Rice, Tebonnet); Rate 0.0315 kg/ha
  Postemergence herbicidal rating ORYSAT: 3.5
ORYSAT (Rice, Tebonnet); Rate 0.0630 kg/ha
  Postemergence herbicidal rating ORYSAT: 3.5
ZEAMX (Corn, Field) [2]; Rate 0.0158 kg/ha
  Postemergence herbicidal rating ZEAMX: 7.0
ZEAMX (Corn, Field) [2]; Rate 0.0315 kg/ha
  Postemergence herbicidal rating ZEAMX: 8.0
ZEAMX (Corn, Field) [2]; Rate 0.0630 kg/ha
  Postemergence herbicidal rating ZEAMX: 7.5
ECHCG (Barnyardgrass); rate 0.0156 kg/ha
  Preemergence herbicidal rating ECHCG: 0.0
ECHCG (Barnyardgrass); rate 0.0313 kg/ha
  Preemergence herbicidal rating ECHCG: 0.0
ECHCG (Barnyardgrass); rate 0.0625 kg/ha
  Preemergence herbicidal rating ECHCG: 0.0
ECHCG (Barnyardgrass); rate 0.1250 kg/ha
  Preemergence herbicidal rating ECHCG: 0.0
ECHCG (Barnyardgrass); rate 0.2500 kg/ha
  Preemergence herbicidal rating ECHCG: 2.0
SETVI (Foxtail, Green) [3]; rate 0.0156 kg/ha
  Preemergence herbicidal rating SETVI: 0.0
SETVI (Foxtail, Green) [3]; rate 0.0313 kg/ha
  Preemergence herbicidal rating SETVI: 0.0
SETVI (Foxtail, Green) [3]; rate 0.0625 kg/ha
  Preemergence herbicidal rating SETVI: 1.0
SETVI (Foxtail, Green) [3]; rate 0.1250 kg/ha
  Preemergence herbicidal rating SETVI: 1.0
SETVI (Foxtail, Green) [3]; rate 0.2500 kg/ha
  Preemergence herbicidal rating SETVI: 9.0
[4]; rate 0.0156 kg/ha
  Preemergence herbicidal rating TRZAWR: 0.0
[4]; rate 0.0313 kg/ha
  Preemergence herbicidal rating TRZAWR: 0.0
[4]; rate 0.0625 kg/ha
  Preemergence herbicidal rating TRZAWR: 0.0
[4]; rate 0.1250 kg/ha
  Preemergence herbicidal rating TRZAWR: 0.0
[4]; rate 0.2500 kg/ha
  Preemergence herbicidal rating TRZAWR: 0.0
ZEAMX (Corn, Field) [5]; rate 0.0156 kg/ha
  Preemergence herbicidal rating ZEAMX: 0.0
ZEAMX (Corn, Field) [5]; rate 0.0313 kg/ha
  Preemergence herbicidal rating ZEAMX: 0.0
ZEAMX (Corn, Field) [5]; rate 0.0625 kg/ha
  Preemergence herbicidal rating ZEAMX: 1.0
ZEAMX (Corn, Field) [5]; rate 0.1250 kg/ha
  Preemergence herbicidal rating ZEAMX: 0.0
ZEAMX (Corn, Field) [5]; rate 0.2500 kg/ha
  Preemergence herbicidal rating ZEAMX: 2.0
[6]; 0.0313 kg/ha
  Herbicidal rating ECHORC: 3.0
[6]; 0.0625 kg/ha
  Herbicidal rating ECHORC: 4.0
[6]; 0.1250 kg/ha
  Herbicidal rating ECHORC: 6.0
[6]; 0.2500 kg/ha
  Herbicidal rating ECHORC: 7.0
CYPIR (Rice Flatsedge) [7]; 0.0313 kg/ha
  Herbicidal rating CYPIR: 0.0
CYPIR (Rice Flatsedge) [7]; 0.0625 kg/ha
  Herbicidal rating CYPIR: 0.0
CYPIR (Rice Flatsedge) [7]; 0.1250 kg/ha
  Herbicidal rating CYPIR: 0.0
CYPIR (Rice Flatsedge) [7]; 0.2500 kg/ha
  Herbicidal rating CYPIR: 4.0
CYPSE (Flatsedge) [8]; 0.0313 kg/ha
  Herbicidal rating CYPSE: 0.0
CYPSE (Flatsedge) [8]; 0.0625 kg/ha
  Herbicidal rating CYPSE: 0.0
CYPSE (Flatsedge) [8]; 0.1250 kg/ha
  Herbicidal rating CYPSE: 2.0
CYPSE (Flatsedge) [8]; 0.2500 kg/ha
  Herbicidal rating CYPSE: 7.0
[9]; rate 0.0313 kg/ha
  Herbicidal rating ECHORC: 3.0
[9]; rate 0.0625 kg/ha
  Herbicidal rating ECHORC: 4.0
[9]; rate 0.1250 kg/ha
  Herbicidal rating ECHORC: 6.0
[9]; rate 0.2500 kg/ha
  Herbicidal rating ECHORC: 7.0
CYPIR (Rice Flatsedge) [10]; rate 0.0313 kg/ha
  Herbicidal rating CYPIR: 0.0
CYPIR (Rice Flatsedge) [10]; rate 0.0625 kg/ha
  Herbicidal rating CYPIR: 0.0
CYPIR (Rice Flatsedge) [10]; rate 0.1250 kg/ha
  Herbicidal rating CYPIR: 0.0
CYPIR (Rice Flatsedge) [10]; rate 0.2500 kg/ha
  Herbicidal rating CYPIR: 4.0
CYPSE (Flatsedge) [11]; rate 0.0313 kg/ha
  Herbicidal rating CYPSE: 0.0
CYPSE (Flatsedge) [11]; rate 0.0625 kg/ha
  Herbicidal rating CYPSE: 0.0
CYPSE (Flatsedge) [11]; rate 0.1250 kg/ha
  Herbicidal rating CYPSE: 2.0
CYPSE (Flatsedge) [11]; rate 0.2500 kg/ha
  Herbicidal rating CYPSE: 7.0
[12]; rate 0.0313 kg/ha
  Herbicidal rating SAGPY: 0.0
[12]; rate 0.0625 kg/ha
  Herbicidal rating SAGPY: 0.0
[12]; rate 0.1250 kg/ha
  Herbicidal rating SAGPY: 0.0
[12]; rate 0.2500 kg/ha
  Herbicidal rating SAGPY: 6.0

Reference: patent publication US20020137929A1, “1 - (3-heterocyclylphenyl) isothiourea, -isourea, -guanidine and -amidine herbicidal agents” (Intellectual Property Department, BASF Aktiengesellschaft, priority 1998, published 2002)
